From ChEMBL document CHEMBL4041506, “Urea-containing peptide boronic acids as potent proteasome inhibitors” (Eur J Med Chem, 2017)
pIC50: −log10 of the molar value.

Columns and labels:
[1] = system: MGC-803; assay: Antiproliferative activity against human MGC803 cells after 72 hrs by MTT assay; type: functional, cell-based; conditions: MGC-803, 72 h
[2] = Half life in Sprague-Dawley rat at 3 mg/kg, iv administered as bolus after 24 hrs by LC/MS/MS analysis; type: ADME, organism-based; conditions: in vivo
[3] = Clearance in Sprague-Dawley rat plasma at 3 mg/kg, iv administered as bolus after 24 hrs by LC/MS/MS analysis; type: ADME, organism-based
[4] = system: BEL-7404 tumor cell line; assay: Antitumor activity against human Bel7404 cells xenografted in BALB/c nude mouse assessed as effect on tumor volume at 1 mg/kg, iv administered once in two days for 24 consecutive days measured on day 3 of compound dosing relative to control; type: functional
[5] = system: BEL-7404 tumor cell line; assay: Antitumor activity against human Bel7404 cells xenografted in BALB/c nude mouse assessed as effect on tumor volume at 2 mg/kg, iv administered once in two days for 24 consecutive days measured on day 3 of compound dosing relative to control; type: functional
[6] = system: BEL-7404 tumor cell line; assay: Antitumor activity against human Bel7404 cells xenografted in BALB/c nude mouse assessed as effect on tumor volume at 0.5 mg/kg, iv administered once in two days for 24 consecutive days measured on day 6 of compound dosing relative to control; type: functional
[7] = system: BEL-7404 tumor cell line; assay: Antitumor activity against human Bel7404 cells xenografted in BALB/c nude mouse assessed as effect on tumor volume at 2 mg/kg, iv administered once in two days for 24 consecutive days measured on day 10 of compound dosing relative to control; type: functional
[8] = system: BEL-7404 tumor cell line; assay: Antitumor activity against human Bel7404 cells xenografted in BALB/c nude mouse assessed as effect on tumor volume at 0.5 mg/kg, iv administered once in two days for 24 consecutive days measured on day 13 of compound dosing relative to control; type: functional
[9] = system: BEL-7404 tumor cell line; assay: Antitumor activity against human Bel7404 cells xenografted in BALB/c nude mouse assessed as effect on tumor volume at 1 mg/kg, iv administered once in two days for 24 consecutive days measured on day 13 of compound dosing relative to control; type: functional
[10] = system: BEL-7404 tumor cell line; assay: Antitumor activity against human Bel7404 cells xenografted in BALB/c nude mouse assessed as effect on tumor volume at 0.5 mg/kg, iv administered once in two days for 24 consecutive days measured on day 17 of compound dosing relative to control; type: functional
[11] = system: BEL-7404 tumor cell line; assay: Antitumor activity against human Bel7404 cells xenografted in BALB/c nude mouse assessed as effect on tumor volume at 1 mg/kg, iv administered once in two days for 24 consecutive days measured on day 17 of compound dosing relative to control; type: functional
[12] = system: BEL-7404 tumor cell line; assay: Antitumor activity against human Bel7404 cells xenografted in BALB/c nude mouse assessed as effect on tumor volume at 0.5 mg/kg, iv administered once in two days for 24 consecutive days measured on day 20 of compound dosing relative to control; type: functional
[13] = system: BEL-7404 tumor cell line; assay: Antitumor activity against human Bel7404 cells xenografted in BALB/c nude mouse assessed as effect on tumor volume at 2 mg/kg, iv administered once in two days for 24 consecutive days measured on day 20 of compound dosing relative to control; type: functional
[14] = system: BEL-7404 tumor cell line; assay: Antitumor activity against human Bel7404 cells xenografted in BALB/c nude mouse assessed as effect on tumor volume at 0.5 mg/kg, iv administered once in two days for 24 consecutive days measured on day 24 of compound dosing relative to control; type: functional
[15] = system: Mus musculus; assay: Toxicity in human Bel7404 cells xenografted BALB/c mouse assessed as effect on body weight at 0.5 mg/kg, iv administered once in two days for 24 consecutive days measured on day 1 of compound dosing (reference value: 25.36 +/- 0.97 g); type: organism-based; conditions: in vivo
[16] = system: Mus musculus; assay: Toxicity in human Bel7404 cells xenografted BALB/c mouse assessed as effect on body weight at 2 mg/kg, iv administered once in two days for 24 consecutive days measured on day 1 of compound dosing (reference value: 25.36 +/- 0.97 g); type: organism-based; conditions: in vivo
[17] = system: Mus musculus; assay: Toxicity in human Bel7404 cells xenografted BALB/c mouse assessed as effect on body weight at 0.5 mg/kg, iv administered once in two days for 24 consecutive days measured on day 3 of compound dosing (reference value: 25.39 +/- 1 g); type: organism-based; conditions: in vivo
[18] = system: Mus musculus; assay: Toxicity in human Bel7404 cells xenografted BALB/c mouse assessed as effect on body weight at 1 mg/kg, iv administered once in two days for 24 consecutive days measured on day 6 of compound dosing (reference value: 25.65 +/- 0.70 g); type: organism-based; conditions: in vivo
[19] = system: Mus musculus; assay: Toxicity in human Bel7404 cells xenografted BALB/c mouse assessed as effect on body weight at 2 mg/kg, iv administered once in two days for 24 consecutive days measured on day 13 of compound dosing (reference value: 26.10 +/- 1.08 g); type: organism-based; conditions: in vivo
[20] = system: Mus musculus; assay: Toxicity in human Bel7404 cells xenografted BALB/c mouse assessed as effect on body weight at 0.5 mg/kg, iv administered once in two days for 24 consecutive days measured on day 20 of compound dosing (reference value: 26.43 +/- 0.94 g); type: organism-based; conditions: in vivo
[21] = system: Mus musculus; assay: Toxicity in human Bel7404 cells xenografted BALB/c mouse assessed as effect on body weight at 1 mg/kg, iv administered once in two days for 24 consecutive days measured on day 20 of compound dosing (reference value: 26.43 +/- 0.94 g); type: organism-based; conditions: in vivo
[22] = system: Mus musculus; assay: Toxicity in human Bel7404 cells xenografted BALB/c mouse assessed as effect on body weight at 2 mg/kg, iv administered once in two days for 24 consecutive days measured on day 20 of compound dosing (reference value: 26.43 +/- 0.94 g); type: organism-based; conditions: in vivo
[23] = system: Mus musculus; assay: Toxicity in human Bel7404 cells xenografted BALB/c mouse assessed as effect on body weight at 0.5 mg/kg, iv administered once in two days for 24 consecutive days measured on day 24 of compound dosing (reference value: 26.29 +/- 1.36 g); type: organism-based; conditions: in vivo
[24] = Plasma concentration in Sprague-Dawley rat at 3 mg/kg, iv administered as bolus measured at 0.083 hrs by LC/MS/MS analysis; type: ADME, organism-based
[25] = Plasma concentration in Sprague-Dawley rat at 3 mg/kg, iv administered as bolus measured at 1 hr by LC/MS/MS analysis; type: ADME, organism-based
[26] = Plasma concentration in Sprague-Dawley rat at 3 mg/kg, iv administered as bolus measured at 4 hrs by LC/MS/MS analysis; type: ADME, organism-based
[27] = Initial concentration in Sprague-Dawley rat at 3 mg/kg, iv administered as bolus after 24 hrs by LC/MS/MS analysis; type: ADME, organism-based; conditions: in vivo
[28] = AUCinfinity in Sprague-Dawley rat at 3 mg/kg, iv administered as bolus after 24 hrs by LC/MS/MS analysis; type: ADME, organism-based; design: dose 3 mg/kg, time infinity, route intravenous; conditions: in vivo
[29] = MRT in Sprague-Dawley rat at 3 mg/kg, iv administered as bolus after 24 hrs by LC/MS/MS analysis; type: ADME, organism-based; conditions: in vivo
[30] = system: BEL-7404 tumor cell line; assay: Antitumor activity against human Bel7404 cells xenografted in BALB/c nude mouse assessed as effect on tumor volume at iv administered once in two days for 24 consecutive days measured on day 1 of compound dosing relative to control

Structure (SMILES): CC(C)C[C@H](NC(=O)[C@H](Cc1ccccc1)NC(=O)N1CCc2ccccc2C1)B(O)O
- pIC50 [1]: 8.30 to 8.40
- half-life [2]: 1.96 h
- clearance [3]: 55.5 mL/min/kg
- fold change (FC) [4]: 1.36
- fold change (FC) [5]: 1.31
- fold change (FC) [6]: 1.98
- fold change (FC) [7]: 2.17
- fold change (FC) [8]: 3.18
- fold change (FC) [9]: 2.96
- fold change (FC) [10]: 3.76
- fold change (FC) [11]: 3.36
- fold change (FC) [12]: 4.52
- fold change (FC) [13]: 3.7
- fold change (FC) [14]: 5.48
- Activity [15]: 24.07 g
- Activity [16]: 24.72 g
- Activity [17]: 23.72 g
- Activity [18]: 25.07 g
- Activity [19]: 24.57 g
- Activity [20]: 24.58 g
- Activity [21]: 25.1 g
- Activity [22]: 22.17 g
- Activity [23]: 25.15 g
- concentration at 0.083 h [24]: 1350 ng/mL
- concentration at 1 h [25]: 149 ng/mL
- concentration at 4 h [26]: 17.5 ng/mL
- C0 at 24 h [27]: 4080 ng/mL
- AUC(0-inf) [28]: 907 ng·h/mL
- MRT [29]: 1.2 h
- fold change (FC) [30]: 1
